Experimental data taken from PMC4949444 (Scientific Reports, 2016).

Tests used:
CB1 receptor = molecular target: T1, CB1 receptor (Homo sapiens, UniProt P21554); assay: CB1 receptor binding, [3H]CP55940 competition; settings: data not shown; read-out: predicted Ki, CB1 receptor
T1 construct: purchased Perkin-Elmer Life and Analytical Sciences, Boston, MA; host or cells: HEK293 EBNA cells stably expressing the receptor
Procedure: CB1 and CB2 receptor binding affinities were determined by competition studies using [^3H]CP55940 as radioligand and commercial membrane preparations of HEK293 EBNA cells stably expressing the respective receptor type (Perkin-Elmer Life and Analytical Sciences, Boston, MA), following a procedure previously described.

[1] = system: ERK, Akt and mTORC1 signaling pathways; assay: ERK, Akt and mTORC1 signalling in HiB5 cells (western blot); assay type: cell-based
Procedure: Figure 3 Prosurvival effect of VCE-003.2 in hippocampal neural progenitor HiB5 cells. (a,b) HiB5 cells in proliferative and differentiation conditions respectively were incubated with increasing concentrations of VCE-003.2 and cell viability was assessed using the MTT test after 48 h. (c) Cell viability and ERK1/2 phosphorylation status (activation) was determined in VCE-003.2-treated cells in the absence or presence of GW9662 (5 μM). (d) VCE-003.2 time-dependent regulation of the ERK, Akt and mTORC1 signaling pathways were determined by incubation with anti-phospho-ERK, phospho-Akt and phospho-S6 antibodies. Loading control was performed with α-tubulin antibody. Representative western blots and densitometry quantification of three independent experiments are shown. Values are expressed as means ± S.D. *p < 0.05; **p < 0.01 vs. Vehicle; ^#p < 0.05 vs. VCE-003.2.
Cleared cell extracts were subjected to SDS-PAGE, transferred to polyvinylidene difluoride membranes, and incubated with the correspondent primary antibodies against phospho-ERK1/2 (Thr202/Tyr204; Cell Signaling Technology, Danvers, MA, USA), phospho-S6 ribosomal protein (Ser235/236) (Cell Signaling Technology), phospho-Akt (Ser473) (Cell Signaling Technology) and α-tubulin (Sigma-Aldrich) overnight at 4 °C. After washing membranes, horseradish peroxidase-conjugated secondary antibody was added and detected by chemiluminescence system. Loading controls were performed with an anti-α-tubulin antibody. Densitometric quantification of the luminograms was performed using a GS-700 Imaging densitometer (Bio-Rad, Hercules, CA) and Image J software.

[2] = system: QA-induced excitotoxicity in CD1 mice; assay: Intrastriatal QA-induced model of Huntington's disease; assay type: in vivo
Procedure: Figure 5 Protective action of VCE-003.2 administration in QA-induced excitotoxicity in vivo. (a) CD1 mice were subjected to quinolinic acid (QA) intrastriatal injection and RotaRod performance (fold change) was determined 2 days after lesion in vehicle- and VCE-003.2-treated mice (10 mg/kg). (b) Representative MRI images (Upper panel) and edema volume quantification (lower panel) 5 days after QA injection. Values are expressed as means ± SEM. Sham-Veh and Sham-VCE (n = 7 in each group); QA-Veh (n = 8); QA-VCE (n = 7). **p < 0.01, ***p < 0.001 vs. Vehicle. ^#p < 0.05 vs. QA.
Figure 6 Neuroprotection and attenuation of glial reactivity by VCE-003.2 in QA-induced excitotoxicity in vivo. (a) Representative immunofluorescence images of DARPP32, GFAP, Iba-1 are shown in sham and QA-injected mice treated with vehicle or VCE-003.2 (10 mg/kg). (b) Immunoreactivity of the different markers was quantified with Image J software and referred to the striatal surface analyzed. Values are expressed as means ± SEM. Sham-Veh and Sham-VCE (n = 3); QA-Veh (n = 8); QA-VCE (n = 6). **p < 0.01, ***p < 0.001 vs. QA. Bar size, 200 μm.
Mice were housed under standard conditions (12-h light/dark cycle) in groups with access to food and water ad libitum. All experiments were performed in accordance with European Union guideline and approved by the Animal Research Ethic Committee of Córdoba University (2014PI/017) (3NP model) and by the Animal Research Ethic Committee of Complutense University (CEA-UCM 73/2012) (QA model). Procedures were designed to minimize the number of animals used and their suffering. Excitotoxicity was induced by intrastriatal quinolinic acid (QA) administration (100 nmol in 1 μL PBS solution, unilaterally) as previously described[41] at the following coordinates: +0.6 posterior to bregma, +1.85 medio-lateral and -2.7 dorso-ventral to dura, in 12-week-old CD1 male mice (Harlan Ibérica, Barcelona, Spain). Pharmacological manipulation with VCE-003.2 (10 mg/kg body weight) was performed i.p. daily in 2% Tween 20 and 3% DMSO in saline buffer until sacrifice. Control animals received the corresponding vehicle injections. Motor function was assessed by RotaRod analysis conducted with acceleration from 4 to 40 rpm over a period of 570 s in an LE8200 device (Harvard Apparatus, Barcelona, Spain). […] 3NP-treated animals and their respective non-lesioned controls (injected with PBS) were used for pharmacological studies with VCE-003.2. Treatments consisted of 4 i.p. injections every 24 h with 20 mg/kg VCE-003.2 or vehicle (4% DMSO plus 6,2% Tween 20 in saline buffer), with the first and the last injections 30 min before the first and the last injections of 3NP, respectively. In some experiments, mice received a combination of VCE-003.2 and the PPARγ antagonist T0070907 (5 mg/kg) injected 15 minutes before VCE-003.2. In 3NP-lesioned mice, motor activity, hindlimb clasping, dystonia, and truncal dystonia were evaluated following previously described procedures. All behavioural tests were conducted prior to drug injections to avoid acute effects of the compounds under investigation and all animals were euthanized 12 h after the last injection of 3NP and their brains removed. The right hemispheres were used to dissect the striatum which was frozen in RNAlater (Sigma-Aldrich) and stored at −80 °C for biochemical analyses. […]

T1 sequence (P21554 whole entry): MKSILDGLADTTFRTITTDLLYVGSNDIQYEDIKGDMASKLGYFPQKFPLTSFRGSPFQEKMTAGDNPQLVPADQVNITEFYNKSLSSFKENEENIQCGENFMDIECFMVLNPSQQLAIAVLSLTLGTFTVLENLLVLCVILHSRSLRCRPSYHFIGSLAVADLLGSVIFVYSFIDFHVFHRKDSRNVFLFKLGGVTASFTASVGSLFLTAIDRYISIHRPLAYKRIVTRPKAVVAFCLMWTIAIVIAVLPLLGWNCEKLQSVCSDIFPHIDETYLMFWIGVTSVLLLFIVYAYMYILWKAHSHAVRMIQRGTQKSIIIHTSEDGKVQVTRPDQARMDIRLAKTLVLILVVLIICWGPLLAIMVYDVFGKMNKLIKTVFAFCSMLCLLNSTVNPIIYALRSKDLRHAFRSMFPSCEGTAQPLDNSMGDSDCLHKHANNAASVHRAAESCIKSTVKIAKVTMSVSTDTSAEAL

SMILES: CCCCCC1=C(NCC)C(=O)C(C/C=C(\C)CCC=C(C)C)=C(O)C1=O [VCE-003.2]
- Ki (CB1 receptor): > 40 µM
- ERK phosphorylation [1]: induction of extracellular signal-regulated kinase (ERK) phosphorylation
- ERK phosphorylation in presence of GW9662 ([1]; + GW9662 5 μM): abolished in the presence of GW9662
- activation of Akt, time course ([1]; phospho-Akt): activated at a higher extent and shortly after VCE-003.2 incubation and lasted until 60 min after incubation
- activation of ERK and mTORC1 signaling, time course ([1]; phospho-ERK and phospho-S6): transient activation of ERK and mTORC1 signaling pathways between 15 and 30 min after stimulation
- RotaRod performance ([2]; 2 days after QA injury, 10 mg/kg i.p. daily): reversed
- edema volume (MRI) ([2]; 5 days after QA injury, 10 mg/kg): edema volume was not affected
- QA-induced DARPP32 neuronal loss ([2]; striatum, 10 mg/kg): prevented QA-induced DARRP32 neuronal loss
- microglial activation (Iba-1) ([2]; striatum, 10 mg/kg): prevented QA-induced DARRP32 neuronal loss and microglial activation
- reactive astrogliosis (GFAP) ([2]; striatum, 10 mg/kg): tendency to attenuate reactive astrogliosis
